# Reference: US10722501B2 (BAYER AKTIENGESELLSCHAFT, priority 2016, dated 2020)
# Target: T1, recombinant full-length human prolyl endopeptidase (PREP) (Homo sapiens, UniProt P48147)
# T1 construct: To recombinant full-length human prolyl endopeptidase (PREP, R&D-Systems, 4308-SE); purchased R&D-Systems 4308-SE
# T1 sequence (P48147 1-710): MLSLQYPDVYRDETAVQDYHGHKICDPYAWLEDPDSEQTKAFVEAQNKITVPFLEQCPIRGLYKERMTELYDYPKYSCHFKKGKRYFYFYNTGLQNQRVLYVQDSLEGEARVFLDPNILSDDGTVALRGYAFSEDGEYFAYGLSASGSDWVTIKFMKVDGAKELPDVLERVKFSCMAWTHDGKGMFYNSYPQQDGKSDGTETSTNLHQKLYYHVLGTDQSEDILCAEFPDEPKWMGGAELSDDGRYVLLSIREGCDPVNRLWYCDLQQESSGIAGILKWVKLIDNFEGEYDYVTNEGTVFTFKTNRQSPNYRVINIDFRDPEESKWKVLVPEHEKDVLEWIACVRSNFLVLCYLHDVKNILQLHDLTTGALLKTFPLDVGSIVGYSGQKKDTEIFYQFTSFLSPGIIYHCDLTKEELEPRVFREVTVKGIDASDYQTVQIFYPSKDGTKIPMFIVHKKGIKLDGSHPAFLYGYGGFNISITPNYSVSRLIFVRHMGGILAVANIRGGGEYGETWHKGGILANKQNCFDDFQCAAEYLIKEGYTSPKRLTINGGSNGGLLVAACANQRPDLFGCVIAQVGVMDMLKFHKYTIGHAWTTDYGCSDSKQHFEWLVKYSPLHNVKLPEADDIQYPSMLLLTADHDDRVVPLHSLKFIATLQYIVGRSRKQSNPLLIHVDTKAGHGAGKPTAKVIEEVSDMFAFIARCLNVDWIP
# Test: Biochemical human prolyl endopeptidase (PREP) assay with fluorescently labelled substrate
# Conditions: substrate Z-Gly-Pro-AMC 50 μM, 32° C., 60 min; some as mean values from multiple independent determinations
# Outline: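 Initial rates of fluorescence increase from 50 μM Z-Gly-Pro-AMC cleavage (ex 360/em 465 nm, 60 min, 32° C) give percent PREP activity versus no-compound control, and IC50 is interpolated. Enzyme used at 0.4 nM (final, example) in Tris pH 7.5 with EDTA, GSH, BSA and Brij-35; compounds span 1 nM to 30 μM.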
row,Compound,IC50
1,"COc1ccc(Cn2nc3n(c2=O)[C@H](C(=O)N2CC(F)C2)CCC3)nc1 [Example 382, (5S)-5-[(3-Fluoroazetidin-1-yl)carbonyl]-2-[(5-methoxypyridin-2-yl)methyl]-5,6,7,8-tetrahydro[1,2,4]triazolo[4,3-a]pyridin-3(2H)-one]",5.9 nM
2,"O=C([C@@H]1CCCc2nn(Cc3cccc(Cl)n3)c(=O)n21)N1CCC(F)(F)C1 [Example 383, (5S)-2-[(6-Chloropyridin-2-yl)methyl]-5-[(3,3-difluoropyrrolidin-1-yl)carbonyl]-5,6,7,8-tetrahydro[1,2,4]triazolo[4,3-a]pyridin-3(2H)-one]",8.55 nM
3,"O=C([C@@H]1CCCc2nn(Cc3cccc(Cl)n3)c(=O)n21)N1CC(F)C1 [Example 384, (5S)-2-[(6-Chloropyridin-2-yl)methyl]-5-[(3-fluoroazetidin-1-yl)carbonyl]-5,6,7,8-tetrahydro[1,2,4]triazolo[4,3-a]pyridin-3(2H)-one]",11 nM
4,"O=C([C@@H]1CCCc2nn(Cc3cccc(Cl)n3)c(=O)n21)N1C[C@@H](F)[C@@H](F)C1 [Example 385, (5S)-2-[(6-Chloropyridin-2-yl)methyl]-5-{[(3R,4S)-3,4-difluoropyrrolidin-1-yl]carbonyl}-5,6,7,8-tetrahydro[1,2,4]triazolo[4,3-a]pyridin-3(2H)-one]",1.8 nM
5,"O=C([C@@H]1CCCc2nn(Cc3cccc(Cl)n3)c(=O)n21)N1CC[C@H](F)C1 [Example 386, (5S)-2-[(6-Chloropyridin-2-yl)methyl]-5-{[(3S)-3-fluoropyrrolidin-1-yl]carbonyl}-5,6,7,8-tetrahydro[1,2,4]triazolo[4,3-a]pyridin-3(2H)-one]",0.94 nM
6,"O=C([C@@H]1CCCc2nn(Cc3nccc(C(F)(F)F)c3Cl)c(=O)n21)N1CCC(F)(F)C1 [Example 387, (5S)-2-{[3-Chloro-4-(trifluoromethyl)pyridin-2-yl]methyl}-5-[(3,3-difluoropyrrolidin-1-yl)carbonyl]-5,6,7,8-tetrahydro[1,2,4]triazolo[4,3-a]pyridin-3(2H)-one]",3.4 nM
7,"O=C([C@@H]1CCCc2nn(Cc3nccc(C(F)(F)F)c3Cl)c(=O)n21)N1C[C@@H](F)[C@@H](F)C1 [Example 388, (5S)-2-{[3-Chloro-4-(trifluoromethyl)pyridin-2-yl]methyl}-5-{[(3R,4S)-3,4-difluoropyrrolidin-1-yl]carbonyl}-5,6,7,8-tetrahydro[1,2,4]triazolo[4,3-a]pyridin-3(2H)-one]",0.575 nM
8,"O=C([C@@H]1CCCc2nn(Cc3nccc(C(F)(F)F)c3Cl)c(=O)n21)N1CC(F)C1 [Example 389, (5S)-2-{[3-Chloro-4-(trifluoromethyl)pyridin-2-yl]methyl}-5-[(3-fluoroazetidin-1-yl)carbonyl]-5,6,7,8-tetrahydro[1,2,4]triazolo[4,3-a]pyridin-3(2H)-one]",1.45 nM
9,"O=C([C@@H]1CCCc2nn(Cc3nccc(C(F)(F)F)c3Cl)c(=O)n21)N1CC(O)C1 [Example 390, (5S)-2-{[3-Chloro-4-(trifluoromethyl)pyridin-2-yl]methyl}-5-[(3-hydroxyazetidin-1-yl)carbonyl]-5,6,7,8-tetrahydro[1,2,4]triazolo[4,3-a]pyridin-3(2H)-one]",13.5 nM
10,"O=C([C@@H]1CCCc2nn(Cc3nccc(C(F)(F)F)c3Cl)c(=O)n21)N1CC[C@H](O)C1 [Example 391, (5S)-2-{[3-Chloro-4-(trifluoromethyl)pyridin-2-yl]methyl}-5-{[(3S)-3-hydroxypyrrolidin-1-yl]carbonyl}-5,6,7,8-tetrahydro[1,2,4]triazolo[4,3-a]pyridin-3(2H)-one]",8.65 nM
11,"O=C([C@@H]1CCCc2nn(Cc3nccc(C(F)(F)F)c3Cl)c(=O)n21)N1CC[C@H](F)C1 [Example 392, (5S)-2-{[3-Chloro-4-(trifluoromethyl)pyridin-2-yl]methyl}-5-{[(3S)-3-fluoropyrrolidin-1-yl]carbonyl}-5,6,7,8-tetrahydro[1,2,4]triazolo[4,3-a]pyridin-3(2H)-one]",0.46 nM
12,"O=C([C@@H]1CCCc2nn(Cc3ncccc3Cl)c(=O)n21)N1CC[C@H](F)C1 [Example 393, (5S)-2-[(3-Chloropyridin-2-yl)methyl]-5-{[(3S)-3-fluoropyrrolidin-1-yl]carbonyl}-5,6,7,8-tetrahydro[1,2,4]triazolo[4,3-a]pyridin-3(2H)-one]",1.4 nM
13,"O=C([C@@H]1CCCc2nn(Cc3ncccc3Cl)c(=O)n21)N1CC(F)(F)C1 [Example 394, (5S)-2-[(3-Chloropyridin-2-yl)methyl]-5-[(3,3-difluoroazetidin-1-yl)carbonyl]-5,6,7,8-tetrahydro[1,2,4]triazolo[4,3-a]pyridin-3(2H)-one]",28 nM
14,"O=C([C@@H]1CCCc2nn(Cc3ncccc3Cl)c(=O)n21)N1C[C@@H](F)[C@@H](F)C1 [Example 395, (5S)-2-[(3-Chloropyridin-2-yl)methyl]-5-{[(3R,4S)-3,4-difluoropyrrolidin-1-yl]carbonyl}-5,6,7,8-tetrahydro[1,2,4]triazolo[4,3-a]pyridin-3(2H)-one]",1.6 nM
15,"O=C([C@@H]1CCCc2nn(Cc3ncccc3Cl)c(=O)n21)N1CC(F)C1 [Example 396, (5S)-2-[(3-Chloropyridin-2-yl)methyl]-5-[(3-fluoroazetidin-1-yl)carbonyl]-5,6,7,8-tetrahydro[1,2,4]triazolo[4,3-a]pyridin-3(2H)-one]",6 nM
16,"O=C([C@@H]1CCCc2nn(Cc3ncc(Cl)cc3Cl)c(=O)n21)N1CC(F)(F)C1 [Example 397, (5S)-2-[(3,5-Dichloropyridin-2-yl)methyl]-5-[(3,3-difluoroazetidin-1-yl)carbonyl]-5,6,7,8-tetrahydro[1,2,4]triazolo[4,3-a]pyridin-3(2H)-one]",6.9 nM
17,"O=C([C@@H]1CCCc2nn(Cc3ncc(Cl)cc3Cl)c(=O)n21)N1CC(F)C1 [Example 398, (5S)-2-[(3,5-Dichloropyridin-2-yl)methyl]-5-[(3-fluoroazetidin-1-yl)carbonyl]-5,6,7,8-tetrahydro[1,2,4]triazolo[4,3-a]pyridin-3(2H)-one]",1.19 nM
18,"O=C([C@@H]1CCCc2nn(Cc3ncc(Cl)cc3Cl)c(=O)n21)N1CCC(F)(F)C1 [Example 399, (5S)-2-[(3,5-Dichloropyridin-2-yl)methyl]-5-[(3,3-difluoropyrrolidin-1-yl)carbonyl]-5,6,7,8-tetrahydro[1,2,4]triazolo[4,3-a]pyridin-3(2H)-one]",1.55 nM
19,"O=C([C@@H]1CCCc2nn(Cc3ncc(Cl)cc3Cl)c(=O)n21)N1C[C@@H](F)[C@@H](F)C1 [Example 400, (5S)-2-[(3,5-Dichloropyridin-2-yl)methyl]-5-{[(3R,4S)-3,4-difluoropyrrolidin-1-yl]carbonyl}-5,6,7,8-tetrahydro[1,2,4]triazolo[4,3-a]pyridin-3(2H)-one]",0.455 nM
20,"O=C([C@@H]1CCCc2nn(Cc3ncc(C(F)(F)F)cc3Cl)c(=O)n21)N1CC[C@@H](F)C1 [Example 401, (5S)-2-{[3-Chloro-5-(trifluoromethyl)pyridin-2-yl]methyl}-5-{[(3R)-3-fluoropyrrolidin-1-yl]carbonyl}-5,6,7,8-tetrahydro[1,2,4]triazolo[4,3-a]pyridin-3(2H)-one]",3.4 nM
21,"O=C([C@@H]1CCCc2nn(Cc3ncc(C(F)(F)F)cc3Cl)c(=O)n21)N1CC(F)C1 [Example 402, (5S)-2-{[3-Chloro-5-(trifluoromethyl)pyridin-2-yl]methyl}-5-[(3-fluoroazetidin-1-yl)carbonyl]-5,6,7,8-tetrahydro[1,2,4]triazolo[4,3-a]pyridin-3(2H)-one]",2.7 nM
22,"O=C([C@@H]1CCCc2nn(Cc3ncc(C(F)(F)F)cc3Cl)c(=O)n21)N1CCC(F)(F)C1 [Example 404, (5S)-2-{[3-Chloro-5-(trifluoromethyl)pyridin-2-yl]methyl}-5-[(3,3-difluoropyrrolidin-1-yl)carbonyl]-5,6,7,8-tetrahydro[1,2,4]triazolo[4,3-a]pyridin-3(2H)-one]",2.33 nM
23,"O=C([C@@H]1CCCc2nn(Cc3ncc(C(F)(F)F)cc3Cl)c(=O)n21)N1CC[C@H](F)C1 [Example 405, (5S)-2-{[3-Chloro-5-(trifluoromethyl)pyridin-2-yl]methyl}-5-{[(3S)-3-fluoropyrrolidin-1-yl]carbonyl}-5,6,7,8-tetrahydro[1,2,4]triazolo[4,3-a]pyridin-3(2H)-one]",0.225 nM
24,"O=C([C@@H]1CCCc2nn(Cc3ncc(Cl)cc3F)c(=O)n21)N1CCC(F)(F)C1 [Example 406, (5S)-2-[(5-Chloro-3-fluoropyridin-2-yl)methyl]-5-[(3,3-difluoropyrrolidin-1-yl)carbonyl]-5,6,7,8-tetrahydro[1,2,4]triazolo[4,3-a]pyridin-3(2H)-one]",3.6 nM
